row,SMILES,melting point
1,Cc1cc(Cc2ccc(C(=O)O)cc2)n(C)c1C(=O)c1ccc(Cl)cc1,245 to 247 °C
2,CCCC(=O)ONC(=N)c1ccc(NC(=O)CCCC(=O)Nc2ccc(C(=N)NOC(=O)CCC)cc2)cc1,194 to 196 °C
3,COc1ccc(Cc2cnc(NCCCCc3ncc(Br)cc3C)[nH]c2=O)cc1,149 to 150 °C
4,Cc1ccc(-c2cc(-c3ccc(F)cc3)c(C(=O)NCc3ccc(C(=O)NO)cc3)[nH]2)cc1,213 to 215 °C
5,CC(C)c1nc(CCOC2=CCCCCCC2)n(C)c1Sc1cc(Cl)cc(Cl)c1,73 to 74 °C
6,O=C1C=CCC2=C3C(=CCN3C13COc1cc4c(cc13)OCO4)CCC2 (stereo unspecified),176 to 177 °C
7,Cc1nc2cc(C(O)(c3ccc(Cl)cc3)c3cncn3C)cc3c(-c4cccc(Cl)c4)cc(=O)n1c23 (stereo unspecified),170 °C
8,CC(C)(C)N1CN(c2ccccc2)C2=NN=CC2=C1N,174 to 176 °C
9,Cc1nn(CC(F)F)c(-c2ccc(F)cc2)c1-c1ccc2c(c1)NC(=O)CO2,168 °C
10,FC(F)(F)c1ccc2c(C3CCNCC3)c[nH]c2c1,210 to 214 °C
11,O=Cc1cccc(Oc2cccc(F)c2)n1,42 to 43 °C
12,O=C(O)C1CCc2c(c3cc(OCc4ccccc4)ccc3n2C(=O)c2ccccc2)C1 (stereo unspecified),193 to 194 °C
13,CCCCCCCCCC(C)(C)c1cc(C(=O)O)ccc1OC,112 °C
14,CN(CC#CI)c1nc(CO)cs1,118 to 119 °C
15,CSc1nc(C)c(CCCl)c(=O)n1C,135 to 137 °C
16,O=C1CN(c2c(F)cc(N3C[C@H](CNC(=S)Nc4ccccn4)OC3=O)cc2F)CN1,194 to 196 °C
17,CCOC(=O)c1c(C)cc2c(c1C)C(=O)O/C2=C\C#N,108 to 109 °C
18,Cc1cc(C(=O)C(=O)O)c(O)cc1Oc1ccccc1,85 to 87 °C
19,COC(=O)c1ccc(/C=C(\C)c2ccc3c(c2)SC(C)(C)S3)cc1,86 to 87 °C
20,CCc1nc(N)nc2c1nc(NC)n2C1CC(N=[N+]=[N-])C(CO)O1 (stereo unspecified),38 to 43 °C
21,COc1ccc2c(c1)c(Cc1cc(=O)n(-c3cccc(C)c3)[nH]1)c(C)n2C(=O)c1ccc(Cl)cc1,120 to 122 °C
22,O=C(CCCCBr)NC(=O)C1CC1,114 to 115 °C
23,COC(=O)Nc1ccc(C(=O)OC)nc1,211 to 213 °C
24,CC1CCc2c(-c3ccc([N+](=O)[O-])cc3)ccc3c(=O)c(C(=O)O)cn1c23 (stereo unspecified),> 300 °C
25,C=COC(=O)C1=Cc2cc(Cl)cc(C=C)c2OC1C(F)(F)F (stereo unspecified),75.9 to 77.2 °C
26,COCc1cnc2c(NC(=O)c3c(Cl)cccc3Cl)cccc2c1CCl,164 °C

row,SMILES,melting point
1,CCN1c2ncccc2C(=O)Nc2c(C)cc(N3CCC(OC(C)=O)C3)nc21 (stereo unspecified),188 to 190 °C
2,CC(C)(C)C(=O)Oc1cc([N+](=O)[O-])cc([N+](=O)[O-])c1O,132 to 135 °C
3,CN1C(=O)N(CC(COc2ccc(-c3ccc(S(N)(=O)=O)cc3)cc2)N(O)C=O)C(=O)C1(C)C (stereo unspecified),203 to 205 °C
4,CCNc1ccc2c(c1)N1CCN=C1S2,239 to 246 °C
5,CC1(C)Oc2cccc(O)c2O1,88 to 90 °C
6,COc1ccc2c(=O)c3cccc(OCc4ccccc4)c3oc2c1,158 °C
7,O=c1[nH]c2sc3ccc(Cl)cc3c2[nH]c1=O,> 340 °C
8,CCCn1cc2c(C3C(=O)Nc4ccc(Br)cc43)nc(NCCCN(C)C)nc2n1 (stereo unspecified),286 to 290 °C
9,O=C(NCc1ccccc1F)[C@@H]1CCCN(c2cccc3c2C(=O)N(Cc2ccncc2)C3=O)C1,196 to 197 °C
10,CCOP(=O)(CCN1CCC(N(CCN)S(=O)(=O)c2ccc(Nc3nccc(Nc4ccc(F)c(F)c4)n3)cc2)CC1)OCC,88 to 90 °C
11,O=C(Nc1ccc2ccc(-c3ccc(Cl)cc3)nc2n1)c1cccc(Br)c1,220 to 224 °C
12,O=c1[nH]c2cc(F)c([N+](=O)[O-])c(Br)c2[nH]c1=O,320 to 325 °C
13,COc1ccc(-c2ccccn2)c(NC(=O)CC(C)N)c1 (stereo unspecified),185 to 188 °C
14,COc1ccc2c(c1)c(Cc1nc(-c3ccc(F)cc3)cs1)c(C)n2C(=O)c1ccc(Cl)cc1,172 to 174 °C
15,Cn1cccc1C(=O)NCCCSc1ccncc1,74 to 75 °C
16,CCN(CC)C(=O)c1nc(CCl)n(-c2ccc(Cl)cc2C(=O)c2ccccc2)n1,118 to 119 °C
17,O=C(Cl)c1cc(F)c(Cl)c([N+](=O)[O-])c1Cl,35 to 37 °C
18,NS(=O)(=O)c1cc2c(s1)S(=O)(=O)CC(O)C2O (stereo unspecified),182 to 185 °C
19,c1ccc(-c2ncc(-c3cnc[nH]3)cn2)cc1,216 °C
20,CCCNC(=O)n1nc(Oc2c(Cl)cc(C(F)(F)F)cc2[N+](=O)[O-])cc1C,111 to 113 °C
21,COc1ccc(C=CC(=O)NNC(=O)C=Cc2ccccc2)cc1,263 °C
22,CCN(c1cccc(-c2ccnc3c([N+](=O)[O-])cnn23)c1)S(=O)(=O)c1ccccc1,189 to 191 °C
23,CCC(CC)c1ccc(C#N)c2nc(Oc3ccc(Cl)cc3Br)n(C)c12,136 to 137 °C
24,COc1cc2c(c(OC)c1)C1CCC3(C)C(O)CCC3C1CC2 (stereo unspecified),53 to 55 °C
25,CNC(=O)COC(=O)N1CCN(CCc2cc(-c3ccc(Cl)cc3)no2)CC1,130 to 132 °C
26,CN1CCN(Cc2ccccc2)CC(NC(=O)c2n[nH]c3ccccc23)C1 (stereo unspecified),192 to 194 °C

row,SMILES,melting point
1,CCn1cnc(Cl)c2nc(C3CC3)nc1-2,140 to 145 °C
2,CC(C)(C)CC(C)(C)c1ccc(OS(=O)(=O)c2ccc(C(C)(C)C)cc2)cc1,68 to 71 °C
3,CC(C)(C)CNc1cc(Cl)nc(Cl)n1,77 to 79 °C
4,CCCOc1ccccc1-c1nc2nc(NCC(=O)OCC)ncc2c(=O)[nH]1,174 to 176 °C
5,Clc1cc(OC(Cl)(Cl)Cl)nc(Cl)n1,55 to 56 °C
6,O=S(=O)(O)c1nc2cc(Cl)c(Cl)cc2[nH]1,353 to 354 °C
7,CCCc1ccccc1OCCCOc1cccc(OC(=CC(=O)OC)C(=O)OC)c1CC,63.5 to 66 °C
8,COC(=O)c1cccc(-c2c(C)c(C(=O)c3ccc(N)c(C(=O)OC)c3)n3ccccc23)c1,232 °C
9,COC(=O)CNC(=O)c1ccc2ccccc2c1,118 °C
10,CN(C)CCCC1(c2ccc(OC3CCCCO3)cc2)Sc2ccccc2N(C)C1=O (stereo unspecified),98.5 to 101 °C
11,CC(C)CC(=O)Nc1cccc(-c2ccnc3c(-c4ccc5[nH]ccc5c4)cnn23)c1,167 to 169 °C
12,O=C(NS(=O)(=O)c1ccccc1)c1ccc2nc(C3CC3)n(Cc3ccc(-c4ccccc4)cc3)c2c1,221 to 225 °C
13,O=C(C1COc2ccccc2O1)N1CCNCC1 (stereo unspecified),84 to 85 °C
14,CCCCOc1c(CNC(=O)OC(C)(C)C)n(CC(C)C)c(=O)c2ccc(-c3ccccn3)cc12,123 to 124 °C
15,CCCNC(=O)C(C)=Cc1ccc2c(c1)c(Cc1ccc(C(=O)O)cc1OC)cn2CCC(=O)N(C)C,90 to 97 °C
16,COc1ccc(-c2nc(SC(C)C)[nH]c2-c2ccncc2)cc1,206 to 210 °C
17,C=CCOCc1[nH]c(=O)c(CC(C)C)[n+]([O-])c1N,149 to 151 °C
18,CC(C)(C)OC(=O)N1C2CCC1CNC2,102 to 104 °C
19,COc1ccc(-c2nc(CNc3ccccc3)nc3cc(OC)c(OC)cc23)cc1OC,199 to 200 °C
20,CCCCCCCCCCCCc1ccccc1C(Sc1ncc(C(=O)O)n1C)C(O)CCC(=O)O (stereo unspecified),79 to 80 °C
21,CC(C)(C)OCC(NC(=O)c1ccc2c(Cl)cnc(Cl)c2c1)C(=O)OC(C)(C)C (racemic),116 to 117 °C
22,O=C1NCN(c2ccccc2)C12CCN(CCCn1c(=O)[nH]c3ccccc31)CC2,228 °C
23,CNc1nnc(C(C)(CCl)CCl)s1,105 to 107 °C
24,CN(C)C=Nc1c(Cl)cc(N=Cc2c(Cl)cccc2Cl)cc1Cl,84 to 86 °C
25,COc1ccccc1NC(=O)Nc1nc(N(CCC(=O)O)Cc2ccc(Cl)c(Cl)c2)nc(=O)[nH]1,188 °C
26,C[C@@H]1C(=O)C[C@H]2C[C@@H]1OO[C@@]2(C)/C=C\c1ccc(C(C)(C)C)cc1,101 °C

row,SMILES,melting point
1,Cc1ccc2c(O)c(C(=O)O)cnc2c1,264 to 265 °C
2,CC1(C)OC(=O)N2CCNCC21 (stereo unspecified),92 to 93 °C
3,FC(F)(F)c1cccc(CSc2nnc(-c3ccc4c(c3)CCO4)o2)c1,88 to 90 °C
4,CCCCc1sc(-c2ccccc2)nc1O,69 to 71 °C
5,COc1ccc(C(=O)c2cc(OC)c(OC)c(OC)c2)cc1,72 to 73 °C
6,Cc1nc2ccccc2c(=O)n1CCCl,114 to 116 °C
7,CC(=O)Nc1ccc(OCCCO[N+](=O)[O-])cc1,89 to 92 °C
8,O=C(CC12CC3CC(CC(C3)C1)C2)Nc1c(Cl)ccc2ncccc12,219 to 220 °C
9,CCN(CC)CCNc1ccc(CNS(C)(=O)=O)c2sc3ccc(Br)cc3c(=O)c12,134 to 139 °C
10,Cc1cccc(-c2nc(NC3CCCCC3)c3ccccc3n2)n1,253 to 255 °C
11,c1ccc(C(c2ccccc2)N2CCN(CCCn3cnc4ccccc43)CC2)cc1,132 °C
12,O=C(OCc1ccccc1)C(=C1NCCCS1)[N+](=O)[O-],78 to 79 °C
13,COc1cc2nc(N3CCN(c4nc5ccccc5o4)CC3)nc(N)c2cc1OC,> 250 °C
14,CC(C)(C)C1=CCC(C(=O)O)CC1 (stereo unspecified),141 to 143 °C
15,CC(O)c1ccc(-c2ccc(N)cc2)cc1 (stereo unspecified),111 to 115 °C
16,Cc1noc(C)c1Cn1cc(-n2c(=O)n(C)n(Cc3ccccc3)c2=O)cn1,124 to 126 °C
17,O=C(Nc1cccc(C(F)(F)F)c1)c1cccc2cc(O)ccc12,201 to 202 °C
18,CC1(C)COC(=O)N1c1nc(-c2ccc(C#N)cc2)cs1,183 to 185 °C
19,Cc1cc(C2=NOC(c3cc(Cl)cc(Cl)c3)(C(F)(F)F)C2)ccc1C(=O)Nc1ccc(Cl)cn1 (stereo unspecified),129 to 132 °C
20,ClCCCCOc1ccc(Br)c(CCOCc2ccccc2)c1,65 to 66 °C
21,O=C(CCC1CCCCC1)C1=C(O)COC1=O,75 to 78 °C
22,CCCN(CCc1c[nH]c2ccc(F)cc12)C1COc2c(F)ccc(C(N)=O)c2C1 (stereo unspecified),125 °C
23,COc1cccc(CC(=O)O)c1OCCCc1cn(-c2ncc(C(F)(F)F)cc2Cl)nc1C(C)C,96 to 97 °C

# From a melting point compilation (Tetko et al.; mined from patent text by program, amines drawn as free bases though some values may be those of a salt)
